Holding throughout (type): cell-based, human
Series [1] relates to untransformed normal mesothelial cells (HMC). Kind of series: Comet assay, HMC. Particulars: single agent.
Description: (§6) After the treatment, the cells were trypsinized and immersed in 1% low-melting agarose (Sigma) in PBS and spread onto microscope slides coated beforehand with 1% agarose (Bio-Rad). The cells were lysed in the lysis solution (2.5 M NaCl, 100 mM EDTA, 10 mM Tris base, 8 g/l NaOH, 1% Triton X-100, 10% DMSO) for 1 hour at room temperature and then run into the running solution (300 mM NaOH, 1 mM EDTA, pH 13.0) for 30 minutes, at 25 V and 250 mA. DNA was balanced with 0.4 M Tris, pH 8.0, and the slides dried with methanol. Propidium iodide-DNA (Sigma) and the figures images were taken by using an Axiovert 200M microscope with 40× magnification and an Axiovision (Zeiss) image acquisition software. At least 300 cells per each slide were recorded.
For series [2], the system named is MSTO211H cells. The experiment in a line: Comet assay, MSTO211H. The conditions noted are these: single agent.
Description: as §6
The test system of series [3] is mesothelioma cell lines MPM MSTO211H. Kind of series: Cell vitality (ATPlite) in co-treatment with pemetrexed, MSTO211H. Here is the method: (§1) Cell lines MSTO211H and NCl-H2052 were used to evaluate the effects of the association of extract of Filipendula vulgaris±anti-tumour drug.
(§2) The assay shown in FIG. 10 was performed using ATPlite™ assay (Perkin Elmer) in accordance with the producer's instructions.
(§3) A solution of water for injectable solutions and ethanol at a concentration of 1:1 was used in the same volumes used for the treatments.
(§4) pemetrexed (Alimta, Lilly) diluted in accordance with the producer's instructions.
(§5) The concentrations of the assayed compound are plotted on the abscissa, whereas the cell vitality expressed in percentage is plotted on the ordinate.
(In general: Cellular ATP, detected with luciferase, serves as a proxy for viable cell number.)

Series [4] has as its system mesothelioma cell lines MPM NCl-H2052. The experiment in a line: Cell vitality (ATPlite) in co-treatment with pemetrexed, NCl-H2052. Here is the method:
as §1, §2, §3, §4, §5

The subject of series [5] is mesothelial cells (HMC). The experiment in a line: Cell vitality (ATPlite) in co-treatment with pemetrexed, HMC. The conditions noted are these: pemetrexed alone. Here is the method: as §2, §3, §4, §5

With `N.N.[Cl][Pt][Cl]` [CDDP, cis-diamminedichloroplatinum], the “DNA damage / fragmentation” value in series [1] and in series [2] was “induces DNA fragmentation” throughout.
For `Nc1nc2[nH]cc(CCc3ccc(C(=O)N[C@@H](CCC(=O)O)C(=O)O)cc3)c2c(=O)[nH]1` [PMTX, pemetrexed], the “concentration of pemetrexed sufficient to lower the cell vitality in double treatment” value in series [3] (double treatment with extract 6 μg/ml) amounted to 10 µM; in series [4] (NCl-H2052, double treatment with extract 6 μg/ml) it was 10 µM. Further, the “cell vitality, single agent” value was “cytotoxic for the MPM cells” in series [3] (pemetrexed alone) and “cytotoxic for the MPM cells” in series [4] (NCl-H2052, pemetrexed alone). Further, the “toxicity for non-tumour cells, single agent” value in series [5] is “highly toxic for the non-tumour cells”.

For the origin of these results see US20160213729A1, “FILIPENDULA VULGARIS EXTRACT AND USES THEREOF” (ABOCA S.P.A. SOCIETA' AGRICOLA, priority 2013, published 2016).
